Laboratory results reported in patent US8735322B2, “Herbicides” (Syngenta Limited, priority 2008, dated 2014).

Key:
Type in all cases: in vivo
[1] = system: Alopecurus myosuroides (ALOMY); assay: Example A pre-emergence herbicidal activity, glasshouse pot test; settings: 480 h, rate 500 g/ha, evaluated 20 days later, 100=total damage to plant, 0=no damage to plant
Method: (§1) Seeds of a variety of test species were sown in standard soil in pots. After cultivation for one day (pre-emergence) or after 10 days cultivation (post-emergence) under controlled conditions in a glasshouse, the plants were sprayed with an aqueous spray solution derived from the formulation of the technical active ingredient in 0.6 ml acetone and 45 ml formulation solution containing 10.6% Emulsogen EL (Registry number 61791-12-6), 42.2% N-methylpyrrolidone, 42.2% dipropylene glycol monomethyl ether (Registry number 34590-94-8) and 0.2% X-77 (Registry number 11097-66-8). The test plants were then grown in a greenhouse under optimum conditions until, 15 days later for post-emergence and 20 days for pre-emergence, the test was evaluated (100=total damage to plant; 0=no damage to plant). Alopecurus myosuroides (ALOMY), Avena fatua (AVEFA), Lolium perenne (LOLPE), Setaria faberi (SETFA), Digitaria sanguinalis (DIGSA), Echinochloa crus-galli (ECHCG) Pre-Emergence Activity

Avena fatua (AVEFA) [2] = assay: as above; settings: 480 h, rate 500 g/ha, evaluated 20 days later, 100=total damage to plant, 0=no damage to plant
Method: as §1

[3] = system: Digitaria sanguinalis (DIGSA); assay: as above; settings: 480 h, rate 500 g/ha, evaluated 20 days later, 100=total damage to plant, 0=no damage to plant
Method: as §1

[4] = system: Echinochloa crus-galli (ECHCG); assay: as above; settings: 480 h, rate 500 g/ha, evaluated 20 days later, 100=total damage to plant, 0=no damage to plant
Method: as §1

Lolium perenne (LOLPE) [5] = assay: as above; settings: 480 h, rate 500 g/ha, evaluated 20 days later, 100=total damage to plant, 0=no damage to plant
Method: as §1

Setaria faberi (SETFA) [6] = assay: as above; settings: 480 h, rate 500 g/ha, evaluated 20 days later, 100=total damage to plant, 0=no damage to plant
Method: as §1

[7] = system: Alopecurus myosuroides (ALOMY); assay: Example A post-emergence herbicidal activity, glasshouse pot test; settings: 360 h, rate 500 g/ha, evaluated 15 days after spraying, read-out: herbicidal damage ALOMY (100=total damage to plant; 0=no damage to plant)
Method: as §1, with “Post Emergency” for “Pre-Emergence”

Avena fatua (AVEFA) [8] = assay: as above; settings: 360 h, rate 500 g/ha, evaluated 15 days after spraying, read-out: herbicidal damage AVEFA (100=total damage to plant; 0=no damage to plant)
Method: as §1, with “Post Emergency” for “Pre-Emergence”

[9] = system: Digitaria sanguinalis (DIGSA); assay: as above; settings: 360 h, rate 500 g/ha, evaluated 15 days after spraying, read-out: herbicidal damage DIGSA (100=total damage to plant; 0=no damage to plant)
Method: as §1, with “Post Emergency” for “Pre-Emergence”

[10] = system: Echinochloa crus-galli (ECHCG); assay: as above; settings: 360 h, rate 500 g/ha, evaluated 15 days after spraying, read-out: herbicidal damage ECHCG (100=total damage to plant; 0=no damage to plant)
Method: as §1, with “Post Emergency” for “Pre-Emergence”

Lolium perenne (LOLPE) [11] = assay: as above; settings: 360 h, rate 500 g/ha, evaluated 15 days after spraying, read-out: herbicidal damage LOLPE (100=total damage to plant; 0=no damage to plant)
Method: as §1, with “Post Emergency” for “Pre-Emergence”

Setaria faberi (SETFA) [12] = assay: as above; settings: 360 h, rate 500 g/ha, evaluated 15 days after spraying, read-out: herbicidal damage SETFA (100=total damage to plant; 0=no damage to plant)
Method: as §1, with “Post Emergency” for “Pre-Emergence”

SMILES | pest or weed control at 500 g/ha [1] [%] | pest or weed control at 500 g/ha (Avena fatua (AVEFA) [2]) [%] | pest or weed control at 500 g/ha [3] [%] | pest or weed control at 500 g/ha [4] [%] | pest or weed control at 500 g/ha (Lolium perenne (LOLPE) [5]) [%] | pest or weed control at 500 g/ha (Setaria faberi (SETFA) [6]) [%] | pest or weed control at 500 g/ha [7] [%] | pest or weed control at 500 g/ha (Avena fatua (AVEFA) [8]) [%] | pest or weed control at 500 g/ha [9] [%] | pest or weed control at 500 g/ha [10] [%] | pest or weed control at 500 g/ha (Lolium perenne (LOLPE) [11]) [%] | pest or weed control at 500 g/ha (Setaria faberi (SETFA) [12]) [%]
Cc1ccc(-c2ccc(Cl)cc2)cc1C1=C(O)CC(CC2CCOC2)CC1=O (centres unmarked) [Compound A-2] | 20 | 40 | 50 | 100 | 10 | 60 | 70 | 40 | 90 | 100 | 50 | 90
CCc1cc(C)cc(CC)c1C1=C(O)CC(CC2CCOC2)CC1=O (centres unmarked) [Compound A-3] | 80 | 90 | 100 | 100 | 100 | 100 | 80 | 80 | 100 | 100 | 80 | 80
CCc1ccc(-c2ccc(Cl)cc2)cc1C1=C(O)CC(CC2CCOC2)CC1=O (centres unmarked) [Compound A-4] | 60 | 40 | 70 | 100 | 30 | 80 | 80 | 70 | 100 | 100 | 70 | 100
CCc1cc(C)cc(CC)c1C1=C(O)CC(CC2CCOCC2)CC1=O (centres unmarked) [Compound A-5, 2-(2,6-diethyl-4-methylphenyl)-5-(tetrahydropyran-4-ylmethyl)cyclohexane-1,3-dione] | 100 | 100 | 100 | 100 | 100 | 100 | 90 | 90 | 90 | 100 | 90 | 100
CCc1cc(C)cc(CC)c1C1=C(O)CC(CC2OCCO2)CC1=O (centres unmarked) [Compound A-6, 2-(2,6-diethyl-4-methylphenyl)-5-([1,3]dioxolan-2-ylmethyl)cyclohexane-1,3-dione] | 90 | 60 | 100 | 100 | 70 | 80 | 80 | 100 | 90 | 100 | 80 | 80
CCc1cc(C)cc(CC)c1C1=C(O)CC(CC2OCCCO2)CC1=O (centres unmarked) [Compound A-7] | 100 | 100 | 100 | 100 | 100 | 80 | 90 | 100 | 80 | 100 | 90 | 80
CCc1cc(C)cc(CC)c1C1=C(O)CC(CC2OCC(C)(C)CO2)CC1=O (centres unmarked) [Compound A-8] | 100 | 50 | 100 | 70 | 100 | 70 | 60 | 50 | 70 | 100 | 80 | 70
Cc1cc(C)c(C2=C(O)CC(CC3CCOCC3)CC2=O)c(C)c1 (centres unmarked) [Compound A-9] | 100 | 60 | 100 | 70 | 100 | 90 | 80 | 70 | 70 | 90 | 80 | 80
Cc1cc(C)c(C2=C(O)CC(C(C)C3CCOCC3)CC2=O)c(C)c1 (centres unmarked) [Compound A-10] | 50 | 50 | 60 | 80 | 70 | 60 | 80 | 80 | 70 | 50 | 60 | 50
CCc1cc(C)cc(CC)c1C1=C(O)CC(C(C)C2CCOCC2)CC1=O (centres unmarked) [Compound A-11] | 100 | 100 | – | 70 | 100 | – | 100 | 90 | 90 | 100 | 90 | 80
CCc1cc(CC)c(C2=C(O)CC(C(C)C3CCOCC3)CC2=O)c(CC)c1 (centres unmarked) [Compound A-12] | – | 40 | 70 | 70 | 100 | 60 | 80 | 80 | 70 | 80 | 80 | 70
CCc1ccc(-c2ccc(Cl)cc2)cc1C1=C(O)CC(C(C)C2CCOCC2)CC1=O (centres unmarked) [Compound A-13] | 30 | 20 | 30 | 30 | 10 | 30 | 80 | 30 | 90 | 100 | 70 | 50
CCc1cc(C)cc(CC)c1C1=C(O)CC(CC2CCSCC2)CC1=O (centres unmarked) [Compound A-14] | 80 | 70 | 100 | 80 | 90 | 100 | 100 | 100 | 70 | 100 | 90 | 100
CCc1cc(C)cc(CC)c1C1=C(O)CC(CC2CC[S+]([O-])CC2)CC1=O (centres unmarked) [Compound A-16] | 100 | 90 | 100 | 100 | 100 | – | 60 | 90 | 100 | 70 | 90 | 80
